From US20190054047A1, “TREATMENT OF MALIGNANT ADRENOCORTICAL TUMOR WITH NICLOSAMIDE AND OTHER COMPOUNDS” (The U.S.A., as represented by the Secretary, Department of …, priority 2016, published 2019)
pIC50: −log10 of the molar value.

Tests used:
[1] = cited from earlier work
AKT pathway = AKT pathway inhibition (FIGS. 6A and 6B); assay type: cell-based; conditions: BD140A and H295R cells
NCI-H295R [2] = test: Caspase 3/7 activity assay (Caspase-Glo 3/7); assay type: cell-based; conditions: 48 hours
Description: (§1) Cells were plated in 96-well plates and treated with niclosamide or the vehicle. Caspase 3/7 activity was measured using the Caspase-Glo 3/7 assay (Promega, Madison, Wis.), according to manufacturer's instructions.

SW-13 [3] = test: Caspase 3/7 activity assay (Caspase-Glo 3/7); assay type: cell-based; conditions: SW-13, 96 hours
Description: as §1

BD140A cells [4] = test: Caspase 3/7 activity assay (Caspase-Glo 3/7); assay type: cell-based
Description: as §1

NCI-H295R MCAs = test: Three-dimensional multicellular aggregates (MCA); assay type: cell-based; conditions: after four weeks of treatment
Description: (§2) NCI-H295R and SW-13 cells, which form multicellular aggregates (MCA) or spheroids, were plated in Ultra Low Cluster 24-well plates (Costar, Corning, N.Y.) at 1×10^5 cells/0.5 mL or 6×10^4 cells/0.5 mL depending on the cell line. Spheroids were allowed to develop for one or two weeks at 37° C. in 5% CO2, and media was exchanged twice a week. Spheroids were treated with niclosamide or the vehicle at varying concentrations, and imaged weekly.

SW-13 MCAs = test: Three-dimensional multicellular aggregates (MCA); assay type: cell-based; conditions: SW-13, after three weeks of treatment
Description: as §2

all three ACC cell lines = test: Cell cycle analysis (propidium iodide flow cytometry); assay type: cell-based; conditions: 48 hours, more cells in G1, fewer in S phase
Description: Cells plated in six-well plates were treated with niclosamide or the vehicle. At 48 hours, cells were fixed for 30 minutes in 70% ethanol at 4° C., and stained with 50 μg/mL of propidium iodide containing […] of ribonuclease A. Flow cytometry was performed on a Canto I flow cytometer (Becton-Dickinson, Franklin Lakes, N.J.) using CellQuest software (BD Biosciences, San Jose, Calif.). Data was generated for at least 20,000 events per sample and analyzed using Modfit software (Verity Software House, Inc., Topsham, Me.).

[5] = test system: adrenocortical carcinoma cell lines NCIH295R, BD140A and SW-13; test: qHTS of 4,292 compounds, activity in all three ACC cell lines; assay type: cell-based; conditions: lower IC50 and higher efficacy vs cisplatin, doxorubicin, etoposide, mitotane, streptozocin (FIG. 1)
Description: (§3) NCI-H295R and SW-13 cells were cultured in Dulbecco's modified Eagle medium (DMEM) supplemented with 2.5% NuSerum (BD Biosciences, San Jose, Calif.) and 0.1% ITS premix (BD Biosciences, San Jose, Calif.). BD140A cells, provided by Drs. Kimberly Bussey and Michael Demeure (Phoenix, Ariz.), were cultured in RPMI supplemented with 1% […] (Gibco, Grand Island, N.Y.), 1% penicillin-streptomycin (Gibco, Grand Island, N.Y.), and 10% fetal bovine serum (FBS; Invitrogen, Carlsbad, Calif.). The cell lines were authenticated using short tandem repeat profiling. Cells were maintained in a 5% CO2 atmosphere at 37° C.
The National Institutes of Health Chemical Genomic Center pharmaceutical library consists of 4,292 small molecules and compounds. Compounds were prepared as described previously (Mehta et al., Clin Cancer Res. 21:4123-32, 2015; hereby incorporated by reference in its entirety). The cell viability of treated cells was measured using the luciferase-coupled ATP quantitation assay, Cell Titer-Glo (Promega, Madison, Wis.). Doxorubicin hydrochloride and tetraoctylammonium bromide were used as positive controls. The final concentration of compounds in the assay ranged from 0.6 nM to 46 μM. […]

NCI-H295R xenografts = test: ACC xenograft tumor growth in vivo; set-up: species or system Nu+/Nu+ mice; conditions: for inhibition in tumor growth: four weeks, vs vehicle control
Description: Mice were maintained according to National Institutes of Health (NIH) Animal Research Advisory Committee (ARAC) guidelines. 5×10^6 NCI-H295R cells were injected into the flank of Nu^+/Nu^+mice. Tumors were allowed to grow and mice were randomized into three treatment groups (8 mice per treatment group). M ice were treated with 100 mg/kg of niclosamide, 200 mg/kg of niclosamide, or the vehicle (PEG500) everyday by oral gavage. Tumor sizes were measured in two dimensions every week with calipers and recorded.

N-cadherin = test: Western blot analysis of EMT mediators; assay type: cell-based; conditions: 48 hours of treatment
Description: (§4) The following antibodies were used: anti-beta catenin (1:1,000) from R&D Systems (Minneapolis, Minn.); anti-GAPDH (1:3,000) from Santa Cruz Biotechnology (Dallas, Tex.); anti-N-cadherin (1:4,000) from EMD Millipore (Billerica, Mass.); and anti-vimentin (1:5,000) from Cell Signaling Technology (Boston, Mass.). Niclosamide (2′,5-dichloro-4′-nitrosalicylanilide) was purchased from Sigma-Aldrich (St. Louis, Mo.) and dissolved in DMSO for in vitro studies.
(§5) Cell lysates were analyzed by SDS-PAGE and transferred to a PVDF membrane. The membranes were incubated with the appropriate primary antibodies overnight at 4° C., followed by horseradish peroxidase conjugated IgG (anti-rabbit 1:3,000, Cell Signaling Technology; anti-mouse 1:3,000, Santa Cruz Biotechnology; anti-goat 1:2,000, R&D Systems, Inc.). Proteins were detected by enhanced chemiluminescence (ECL; Thermoscientific, Rockford, Ill.).

vimentin = test: Western blot analysis of EMT mediators; assay type: cell-based; conditions: 48 hours of treatment
Description: as §4, §5

NCI-H295R and SW-13 = test: Transwell (Boyden chamber) migration assay; assay type: cell-based; conditions: transwell migration assays
Description: (§6) NCI-H295R and SW-13 cells were plated in six-well plates and treated with varying concentrations of niclosamide or the vehicle for 24 hours. Cells were trypsinized and plated in transwell chambers (BD Biosciences, San Jose, Calif.) at a density of 1×10^5 cells per 0.5 mL. The lower chamber was filled with DMEM supplemented with 10% FBS as a chemoattractant. Cells were allowed to migrate for 24 hours or 48 hours depending on the cell line, and were fixed and stained with Diff-Quik (Dade Behring, Newark, N.J.). Cells were imaged and counted in three random fields per well, and the experiments performed in triplicate. […] The cells were scratched using a sterile pipette tip and photographed at various time points.

[6] = in vivo; cited from earlier work
[7] = test system: all three cell lines (ACC); test: Seahorse XF96 mitochondrial metabolism assay (OCR, ECAR); assay type: cell-based
Description: The Seahorse XF96 assay was performed according to the manufacturer's instructions (Seahorse Bioscience, Billerica, Mass.). Briefly, cells were plated in XF96 plates and media was replaced with unbuffered DMEM supplemented with 2 mmol of glutamine and 2.5 g/L of D-Glucose. After 1 hour in a 37° C. CO2-free incubator, the oxygen consumption rate (OCR) and extracellular acidification rate (ECAR) were measured before and after injection of the drug, the vehicle, or carbonyl cyanide 4-(trifluoromethoxy) phenylhydrazone (FCCP) using the Seahorse XF96 extracellular flux analyzer.

β-catenin = test: Western blot analysis of β-catenin; assay type: cell-based; conditions: all three cell lines
Description: as §4, §5

[8] = humans; read-out: known Cmax in humans; cited from earlier work
ACC cells = test: TMRE staining, mitochondrial membrane potential; assay type: cell-based; conditions: after 3 hours and 6 hours of treatment
Description: Cells in 96-well plates were treated with the drug or vehicle. Cells were then stained with 200 nM of tetramethylrhodamine, ethyl ester (TMRE) for 20 minutes at 37° C. and were washed with PBS; fluorescence was measured using a SpectraMax M5e 96-well fluorescence microplate reader. FCCP was used as a positive control.

NCI-H295R cells = test: Proliferation with niclosamide, mitotane or the combination (CyQuant, Chou-Talalay); assay type: cell-based; conditions: niclosamide 0.05-0.2 μM or mitotane 0.5-2 μM alone
Description: This example describes a method used to evaluate proliferation of H2965R adrenocortical carcinoma cells in the presence of (1) niclosamide alone (at 0.05 μM, 0.075 μM, 0.1 μM, 0.15 μM, or 0.2 μM), (2) mitotane alone (at 0.5 μM, 0.75 μM, 1 μM, 1.5 μM, or 2 μM), or (3) a combination of both niclosamide and mitotane.
NCI-H295R cells were cultured in Dulbecco modified Eagle medium (DMEM) supplemented with 2.5% NuSerum (BD Biosciences, San Jose, Calif.) and 0.1% ITS premix (BD Biosciences, San Jose, Calif.). Cells were maintained in 5% CO2 atmosphere at 37° C. 3×10^3 cells were plated in 96-well plates. […] Cell count was determined using the CyQuant kit (Life technologies, Grand Island, N.Y.) according to the manufacturer's instructions, and absorbance (cell number) was measured using a SpectraMax M5 microplate reader (Molecular Devices, Sunnyvale, Calif., ex485/em538). Assays were performed in quadruplicate and the experiments were repeated three times.
Statistical analysis was performed using GraphPad Prism 6 software (GraphPad Software, La Jolla, Calif.). Data was analyzed using a two-tailed Mann-Whitney test. Statistical significance was defined as a p-value of less than 0.05. Data are presented as mean±standard deviation (SD). […] Defined as a CI index of <1=synergistic, 1=additive, and >1 antagonistic.

BD140A = test: qHTS cell viability (Cell Titer-Glo ATP quantitation); assay type: cell-based
Description: as §3
(§7) The National Institutes of Health Chemical Genomic Center pharmaceutical library consists of 4,292 small molecules and compounds. Compounds were prepared as described previously (Mehta et al., Clin Cancer Res. 21:4123-32, 2015; hereby incorporated by reference in its entirety). The cell viability of treated cells was measured using the luciferase-coupled ATP quantitation assay, Cell Titer-Glo (Promega, Madison, Wis.). Doxorubicin hydrochloride and tetraoctylammonium bromide were used as positive controls. The final concentration of compounds in the assay ranged from 0.6 nM to 46 μM. The titration-response data was plotted and modeled by a four-parameter logistic fit-to-yield half-maximal inhibitory concentration (IC50) and efficacy (maximal response), as compared to tetraoctylammonium bromide values.

NCI-H295R [9] = test: as above; assay type: cell-based; conditions: Homo sapiens
Description: as §3, §7

SW-13 [10] = test: as above; assay type: cell-based; conditions: Homo sapiens, SW13; SW-13, qHTS
Description: as §3, §7

[11] = test system: three ACC cell lines (BD140A, SW-13, NCI-H295R); test: Cellular proliferation assay (CyQuant), monolayer culture; assay type: cell-based
Description: 3×10^3 and 6×10^3 cells were plated in 96-well plates depending on the cell line. 100 μL of fresh culture medium containing the drug or vehicle was added. Cell count was determined using the CyQuant kit (Life Technologies, Grand Island, N.Y.), according to the manufacturer's instructions, and cell number was measured using a SpectraMax M5 microplate reader (ex485/em538; Molecular Devices, Sunnyvale, Calif.). Assays were performed in quadruplicate and the experiments were repeated three times.

BD140A cells [12] = test: Wound-healing migration assay; assay type: cell-based; conditions: wound-heal assay, after 6 hours and 12 hours, vs vehicle control
Description: as §6

O=C(Nc1ccc([N+](=O)[O-])cc1Cl)c1cc(Cl)ccc1O [niclosamide, 5-chloro-N-(2-chloro-4-nitrophenyl)-2-hydrobenzamide]
water solubility [1]: low
AKT pathway (AKT pathway): inhibited
caspase 3/7 activity (NCI-H295R [2]): increased
caspase 3/7 activity (SW-13 [3]): increased
caspase 3/7 activity (BD140A cells [4]): no increase
effect on MCAs (NCI-H295R MCAs): growth inhibition and disintegration of the MCAs
effect on MCAs (SW-13 MCAs): growth inhibition and disintegration of the MCAs
cell cycle progression (all three ACC cell lines): induced G1 cell cycle arrest
activity compared to commonly used drugs for ACC [5]: better activity
tumor growth inhibition (NCI-H295R xenografts; 100 mg/kg and 200 mg/kg groups, 8 weeks, vs control group): more than 90%
tolerability / toxicity in mice (NCI-H295R xenografts; 100 mg/kg and 200 mg/kg oral): no observed toxicity or side effects
inhibition in tumor growth (NCI-H295R xenografts; 100 mg/kg everyday by oral gavage): 60%
inhibition in tumor growth (NCI-H295R xenografts; 200 mg/kg everyday by oral gavage): 80%
mouse body weight (NCI-H295R xenografts; treated groups vs vehicle): no significant weight differences
expression of N-cadherin (N-cadherin): reduced
expression of vimentin (vimentin): reduced
cellular migration (NCI-H295R and SW-13): Reduced
oral bioavailability [6]: low
extracellular acidification rate (ECAR) [7]: increased
oxygen consumption rate (OCR) [7]: increased
expression of β-catenin (β-catenin): reduced
Cmax [8]: 18.3 µM
mitochondrial membrane potential (TMRE) (ACC cells): decrease
reducing proliferation of H295R cells, single agent (NCI-H295R cells): some effect
pIC50 (BD140A): 6.92
pIC50 (NCI-H295R [9]): 6.28
pIC50 (SW-13 [10]): 6.82
cytotoxicity (killing pre-existing cancer cells) ([11]; at higher concentrations): cytotoxic
cellular proliferation ([11]; monolayer cell culture, three ACC cell lines): inhibited proliferation in a time- and dose-dependent manner
cell migration (BD140A cells [12]): decreased

Clc1ccc(C(c2ccccc2Cl)C(Cl)Cl)cc1 (stereo not shown) [mitotane]
reducing proliferation of H295R cells, single agent (NCI-H295R cells): some effect
